Laboratory results reported in publication PMC11148078, “Potent activity of polymyxin B is associated with long-lived super-stoichiometric accumulation mediated by weak-affinity binding to lipid A” (Nature Communications, 2024).
Entries after “also recorded” stand apart in the source; their conditions may differ. Bridge positions count the residues as written; N and C are the ends. Square brackets hold non-standard residues; d marks the D form. Peptide text beside a SMILES is read from it. * marks the point of attachment. X1 = CC[C@H](C)CCCCC(=O)*; Dab = NCC[C@H](N)C(=O)O

Assays:
[1] = tested on: wt-OMVs; experiment: TEM / cryo-EM of treated OMVs; parameters: species or system E. coli; details: ~0.5:1 compound to LPS
Protocol: OMVs were incubated in OMV buffer (as above) plus 0.0005% tween-80 and then polymyxin B, PMBN, or an equal volume of OMV buffer, added for a final ratio of 0.5:1 polymyxin B (or PMBN) to LPS for either 1 min or 40 min. The amount of LPS in the OMV preparations was determined using fluorescently labeled LPS as described. LPS was quantified by addition of 20 µL of 4 µM dansyl-polymyxin B to 20 µL of sample or dilution series of LPS in PBS with 0.004% tween-80 and 5 mM EDTA in a while polypropylene 384-well plate (Thermo-Fisher). The plate was incubated for 30 min at room-temperature before reading the fluorescence intensity on a plate reader (Ex 340 nm, Em 495 nm, cutoff 475 nm). Concentration was interpolated using a standard curve. Log-phase bacteria were diluted to OD600 of 0.25 in 3 mL of LB supplemented with tween-80 before addition of 1 µL of 1 µM polymyxin B or PMBN and incubated statically at 37 °C. Samples were fixed at times indicated by addition of equal volume of 2x Karnovsky fix and stored at 4 °C. The suspensions were then adsorbed to the surface of formvar and carbon-coated standard TEM grids (75 mesh) for 15 min at room temperature, quickly rinsed in ultrapure water. OMVs were stained twice for 60 s with 2% aqueous uranyl acetate and bacteria were stained with uranyl-less stain (ready-to-use solution from Electron Microscopy Sciences) twice for 60 s. Excess staining solution was blotted off and grids were air dried. Imaging was with JEOL JEM-1400 transmission electron microscope (TEM) operated at 80 kV using magnification form 5000x to 100,000x. At least 20 images were taken for each sample. […]
California USA, www.graphpad.com). […]
Wild-type and polymyxin-resistant OMVs (pmrAG53E) were incubated with polymyxin B, PMBN, or an equal volume of buffer, as described for TEM imaging at a final ratio of 0.5:1 polymyxin B (or PMBN) to LPS for 20 min. To prepare samples for cryo-EM, 4 μL of each condition was applied to holey gold grids (UltrAuFoil 25 nm R 1.2/1.3; Quantifoil) which had been glow discharged for 20 sec with a Solarus plasma cleaner (Gatan). […]

[2] = tested on: resistant-OMVs (E. coli PmrA^G53E); experiment: Single-cycle kinetic SPR binding to immobilized resistant-OMVs; details: serial doubling injections, C1 chip
Protocol: Polymyxin B was covalently attached to a C1 chip (Series S Sensor Chip C1, Cytiva) using an amine coupling kit (Cytiva). Cartoon in Fig. 1A created with BioRender (biorender.com). Briefly, equal amounts of reagents N-hydroxysuccinimide and 1-ethyl-3-(3-dimethylaminopropyl) carbodiimide hydrochloride were mixed as per manufacturer’s instructions and immediately added to the gold chip surface for 2 min, washed with distilled deionized water, and dried. Sufficient polymyxin B (1 mM in 1 M HEPES buffer, pH 8) was added to cover the chip surface, incubated at room temperature for 1 h, washed as before, and then incubated with 1 M ethanolamine hydrochloride-NaOH, pH 8.5, for 1 min. The chip surface was washed with water, dried as previously described, immediately loaded into a Biacore S200, and primed with running buffer (described below) to equilibrate the system. C1 chips were used for multiple runs and discarded upon removal from the Biacore S200.
SCK C1-chip SPR experiments were performed in running buffer (Dulbecco’s phosphate-buffered salt solution 1x without calcium or magnesium (Fisher Scientific), pH 7.4, with 0.0005% tween-80 (Sigma) passed through a 0.2 µm filter) unless otherwise indicated. Inclusion of tween-80 prevented loss of polymyxin to the plastics[34] (also see Supplementary Information Methods). For experiments with brevicidine, which was suspended in DMSO, 0.125% DMSO was included in the running buffer. OMVs were diluted from frozen stocks to approximately 20–30 µg/ml protein in the OMV buffer. Capture of OMVs was performed at a low flow rate ([…]) for 300 s over the test channel(s) followed by a 300 s stabilization period. All subsequent steps were at a flow rate of 40 µl/ml. For single cycle kinetics, two-fold dilutions were injected over the channel(s) loaded with OMVs and a reference channel without OMVs for 30 s contact and 480 s dissociation. […]

Compound	effect on OMV morphology (words) [1]	effect on OMV morphology (words) ([1]; listed as polymyxin B)	SPR binding profile [2]
CC[C@H](C)CCCCC(=O)N[C@@H](CCN)C(=O)N[C@H](C(=O)N[C@@H](CCN)C(=O)N[C@H]1CCNC(=O)[C@H]([C@@H](C)O)NC(=O)[C@H](CCN)NC(=O)[C@H](CCN)NC(=O)[C@H](CC(C)C)NC(=O)[C@@H](Cc2ccccc2)NC(=O)[C@H](CCN)NC1=O)[C@@H](C)O [Polymyxin B] (X1-[Dab]T[Dab][Dab][Dab][dF]L[Dab][Dab]T; lactam 4-C (inferred); N-terminus assumed)	led to clumping	exhibited vesiculation and tubules; also recorded: OMVs are perturbed by polymyxin B	exhibited only the weak, saw-tooth binding
CC(C)C[C@@H]1NC(=O)[C@@H](Cc2ccccc2)NC(=O)[C@H](CCN)NC(=O)[C@@H](NC(=O)[C@H](CCN)NC(=O)[C@@H](N)[C@@H](C)O)CCNC(=O)[C@H]([C@@H](C)O)NC(=O)[C@H](CCN)NC(=O)[C@H](CCN)NC1=O [PMBN] (H-T[Dab][Dab][Dab][dF]L[Dab][Dab]T; lactam 3-C)	less or no OMV clumping was observed	–	exhibited only weak, saw-tooth binding
